{
  "source": "paper PMC4301629",
  "about": "(PLoS ONE, 2015)",
  "key": {"HEK293/EBNA cells": {"system": "HEK293/EBNA cells", "assay": "IP accumulation (IP-One HTRF) in untransduced HEK-293/EBNA cells", "type": "cell-based"}, "α1A-AR [1]": {"biological_target": "T1, α1A-AR (Homo sapiens, UniProt P35348)", "T1 sequence (P35348 1-466)": "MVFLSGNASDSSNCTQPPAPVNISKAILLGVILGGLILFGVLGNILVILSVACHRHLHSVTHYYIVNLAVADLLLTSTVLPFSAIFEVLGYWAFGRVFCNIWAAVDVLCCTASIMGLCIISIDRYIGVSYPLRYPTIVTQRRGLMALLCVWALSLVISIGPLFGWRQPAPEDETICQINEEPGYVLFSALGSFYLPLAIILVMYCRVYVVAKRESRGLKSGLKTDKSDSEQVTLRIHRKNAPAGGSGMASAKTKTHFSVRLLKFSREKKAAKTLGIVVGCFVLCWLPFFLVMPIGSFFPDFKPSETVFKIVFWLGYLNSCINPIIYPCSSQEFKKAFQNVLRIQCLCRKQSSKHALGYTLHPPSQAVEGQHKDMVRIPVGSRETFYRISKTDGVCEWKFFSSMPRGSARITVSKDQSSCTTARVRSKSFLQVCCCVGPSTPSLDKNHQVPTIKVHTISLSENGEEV", "assay": "IP accumulation in α1A-AR_CHO stable cells", "type": "cell-based", "set-up": "expressed in transfected cells", "details": "Iso up to 1 mM", "protocol": "(§1) After 10–20 minutes, 10 μL of agonist was added followed by incubation for 5 to 30 minutes. Stimulation was stopped by addition of lysis buffer. Second messenger levels were determined using a homogeneous immunoassay method with time-resolved FRET detection (IP-One HTRF, Cisbio International) according to protocols provided by the supplier. Sample fluorescence was measured with a Nanoscan plate reader (IOM, Berlin). Each data point represents the average of quadruplicate determinations and each experiment was performed at least two times independently.\nIP1, IP2, and IP3 levels were determined via LC-MS. Plots are representative of three independent experiments with each data point being the average of triplicates."}, "α1A-AR [2]": {"biological_target": "T1, α1A-AR", "assay": "IP accumulation (IP-One HTRF) in α1A-AR transduced HEK-293/EBNA cells", "type": "cell-based", "set-up": "expressed in transfected cells; host or cells: HEK-293/EBNA (baculovirus transduction, NaBu induction)", "details": "α1A-AR transduced HEK-293/EBNA; Iso up to 10 mM", "protocol": "Prior to experiments, cells were transduced with baculovirus strains designed for transient expression of α1A-AR or aldehyde oxidase (negative control). This was performed by incubating cells with virus (MOI 100–150) for 3 to 4 h, followed by exchange into fresh serum free growth medium supplemented with 4 mM sodium butyrate (NaBu). Cells were grown for another 14 to 18 h and then examined for agonist-evoked responses in transient Ca^2+ release, IP accumulation or pERK activation assays. The surface receptor expression density was determined by flow cytometry via immunofluorescence labeling of an N-terminal HA epitope tag on the receptor and radioligand binding in partially purified membranes.\nas §1"}, "CCR5_CHO cells": {"system": "CCR5_CHO cells", "assay": "Ca2+ transient response in CCR5_CHO negative control cells", "type": "cell-based, Chinese hamster", "details": "S4 Fig.", "protocol": "Cells were resuspended in Hank’s balanced salt solution (Invitrogen) supplemented with 2 mM CaCl2, 10 mM HEPES pH 7.4, 2.5 mM probenecid, plus 1g/L each of glucose and bovine serum albumin (BSA), and seeded in poly-D-lysine coated 96-well black plates with transparent bottom (Costar) at a density of 50,000 cells/0.1 mL per well. Cells were then incubated for 1 h at 37°C with an additional 0.1 mL of buffer containing 4 μM fluo3-AM that was diluted from a stock solution containing 1 mM fluo3-AM dye in DMSO with 10% pluronic acid. After dye loading incubation, plates were washed twice with 100 μL of buffer and refilled with 100 μL of assay buffer. In experiments testing the effect of antagonists, 25 μL of buffer from wells of washed cells were replaced with 25 μL of vehicle or 4× antagonist solution. […] Agonist-evoked Ca^2+ mobilization responses of cell populations were monitored at room temperature simultaneously in all wells of the assay plate using the plate-imaging fluorometric reader FLIPR (MDS Analytical Technologies, Sunnyvale, CA). Measurements consisted of recording baseline fluorescence signal for 10 seconds followed by addition of the test substance and 1–2 minute readings of Ca^2+ transient responses as reported by changes in Ca^2+ dye fluorescence (excitation 488 nm, emission 510–570 nm). […]"}, "α1A-AR [3]": {"biological_target": "T1, α1A-AR", "assay": "LC-MS detection of IP1, IP2 and IP3 in α1A-AR transduced HEK-293/EBNA cells", "type": "cell-based", "set-up": "expressed in transfected cells; host or cells: HEK-293/EBNA (baculovirus transduction, NaBu induction)", "details": "Iso up to 10 mM", "protocol": "Virally transduced HEK-293/EBNA cells were resuspended in growth medium and seeded in poly-D-lysine coated 96-well black plates at a density of 100,000 cells/0.1 mL per well, Cells were allowed to attach for 2 hours at 37°C in a humidified atmosphere of 95% air and 5% CO2. After that, the medium was replaced with agonist solution in assay buffer (20 mM HEPES, 10 mM glucose, 1.8 mM CaCl2, 0.5 mM MgSO4, in HBSS 1X buffer, 50 mM LiCl) and cells were incubated at 37°C for 30 min. Stimulation was stopped by exchange of assay buffer with lysis buffer (100 μL 0.1N HCl/MeOH), and lysis proceeded for 30 min at 4°C. Cellular levels of inositol phosphates were determined using a Thermo LC-MS detection system following a published protocol. Chromatography was performed employing a BioBasic column AX (50 × 2.1 mm, Thermo). The mobile phase consisted of solvent A: 10 mM ammonium acetate, pH 6 in 30/70 acetonitrile/water, and solvent B: 1 mM ammonium acetate, pH 11 in 30/70 acetonitrile/water. A gradient solvent system was used starting with 0% solvent B, and analytes were eluted by increasing solvent B to 100% over 3 min. Each data point represents the average of triplicate determinations and each experiment was performed at least three times independently."}},
  "data": [
    {"smiles": "CC(C)NCC(O)c1ccc(O)c(O)c1", "note": "(stereo not drawn) [Iso, isoproterenol]", "values": [
      {"measurement": "EC50 IP", "setting": "HEK293/EBNA cells; HEK293/EBNA untransduced", "result": "BQL"},
      {"measurement": "IP formation", "setting": "HEK293/EBNA cells; untransduced cells, data not shown", "result": "not detectable"},
      {"measurement": "IP accumulation", "setting": "α1A-AR [1]", "result": "no IP accumulation could be detected"},
      {"measurement": "IP accumulation", "setting": "α1A-AR [2]", "result": "no significant accumulation of IP was detected"},
      {"measurement": "Ca2+ transient response", "setting": "CCR5_CHO cells", "result": "not observed"},
      {"measurement": "cellular levels of inositol phosphates IP1, IP2 and IP3", "setting": "α1A-AR [3]", "result": "no significant changes"}
    ]}
  ]
}
